Assay results as given in patent US20140102978A1, “Composition and Method for Remediation of Contaminated Water” (JRW BIOREMEDIATION LLC, priority 2012, published 2014).

Experiment: Thiosulfate/Gluconate physical compatibility screening
Type: physicochemical
Details: heated to no more than 115° F, visual and olfactory
Text: The final solution was stored at room temperature for 15 days and then examined to determine relative storage stability.

With ferrous gluconate the Observation (1 g ferrous gluconate (Mole % 4%) added to 25 g sodium thiosulfate) was “Mild odor, dissolved when warmed”, the Observation (2 g ferrous gluconate (Mole % 7%) added to 25 g sodium thiosulfate) was “Mild odor, dissolved when warmed” and the Observation (3 g ferrous gluconate (Mole % 11%) added to 25 g sodium thiosulfate) was “Mod odor, dissolved when warmed”. The Observation (4.5 g ferrous gluconate (Mole % 16%) added to 25 g sodium thiosulfate) was “Mod odor, dissolved when warmed”, the Observation (5 g ferrous gluconate (Mole % 19%) added to 25 g sodium thiosulfate) was “Mod odor, dissolved when warmed” and the Observation (6 g ferrous gluconate (Mole % 22%) added to 25 g sodium thiosulfate) was “Mod odor, dissolved when warmed”. The Observation (7 g ferrous gluconate (Mole % 26%) added to 25 g sodium thiosulfate) was “Mod odor, dissolved when warmed”, the Observation (8 g ferrous gluconate (Mole % 30%) added to 25 g sodium thiosulfate) was “Mod odor, dissolved when warmed” and the Observation (9 g ferrous gluconate (Mole % 33%) added to 25 g sodium thiosulfate) was “Mod odor, dissolved when warmed”. For the same substance, the Observation (10 g ferrous gluconate (Mole % 37%) added to 25 g sodium thiosulfate) was “Mod odor, dissolved when warmed” and the Observation (14 g ferrous gluconate (Mole % 52%) added to 25 g sodium thiosulfate) was “Mod odor, dissolved when warmed”.
